Assay results: patent US9511070B2, “Heterocyclyl carboxamides for treating viral diseases” (NOVADRUG, LLC, priority 2012, dated 2016)

Test system: JFH-1 HCV
Conditions: for intracellular HCV RNA levels (FIGS. 1A, 1B, 1C): relative to mock-treated HCV infected control, doses in μM; for HCV Antiviral Activity: viral titer at 5 μM or 15 μM compared to untreated control
From the text: In vitro assay for anti-HCV efficacy. HCV studies typically involve infected patients and chimpanzees. However, recently, a robust HCV infection system was developed with cells derived from the Huh-7 human hepatoma cell line. It is based on the unique JFH-1 HCV consensus cDNA derived from an HCV patient. Using reverse genetics, the infectious virus can be rescued from this HCV clone. The recovered viable JFH virus can be passaged serially in Huh-7 cells. For this reason, this system is amenable for evaluating the activity of test compound for their anti-HCV efficacy.
Briefly, 6×10^3 Huh7-1 cells are incubated overnight in each well of collagen-coated BioCoat 96-well plates (BD Biosciences, Bedford, Mass.) in 0.2 ml 10% medium composed of Dulbecco's modified Eagle's medium supplemented with 10% fetal bovine serum. Subsequently, at 2 day intervals, the cultures are replenished with fresh 0.2 ml 10% medium. After the cultures become confluent, they continue to be replenished at 2 day intervals with fresh 0.2 ml 10% medium that also includes 1% dimethyl sulfoxide (DMSO). After 20 days of these replenishments, the Huh7-1 cultures are incubated with fresh 1% medium (same as 10% medium except that the serum level is 1%) containing HCV at a multiplicity of infection (MOI) of 0.05 focus forming units (ffu)/cell. The HCV (JFH-lwt Huh7) stock titer is 1.5×10^5 ffu/mL. The next day (day 1 post-infection) and 2 days later (day 3 post-infection) the media are replenished with fresh 1% medium containing the test compounds dissolved in DMSO. On the 5th day of treatment with the compounds, cell lysates are collected for RNA isolation and Real Time-quantitative Reverse Transcription Polymerase Chain Reaction (RT-qPCR) and culture media are collected for cytotoxicity analysis.
Total RNA is isolated from cells by the guanidine thiocyanate method using standard protocols. One μg RNA is used for cDNA synthesis using TaqMan reverse transcription reagents (Applied Biosystems, Foster City, Calif.) followed by real-time PCR using an Applied Biosystems 7300 real-time thermocycler. Thermal cycling consists of initial denaturation of 10 min at 95° C. followed by 40 cycles of denaturation (15 s at 95° C.) and annealing/extension (1 m at 60° C.). HCV and human glyceraldehyde-3-phosphate dehydrogenase (GAPDH) RNA levels are determined relative to a standard curve of serial dilutions of plasmid containing JFH-1 HCV or GAPDH cDNA. The PCR primers used to detect GAPDH and HCV are: GAPDH (NMX002046) 5′-[…]-3′(SEQ ID NO: 16) (sense) and 5′-[…]-3′(SEQ ID NO: 17) (anti-sense) JFH-1 HCV (AB047639) 5′-[…]-3′(SEQ ID NO: 18) (sense) and 5′-[…]-3′(SEQ ID NO: 19) (anti-sense).

| SMILES | intracellular HCV RNA levels (FIGS. 1A, 1B, 1C) | HCV Antiviral Activity |
| --- | --- | --- |
| O=C(Nc1ccc(Oc2ccccc2F)cc1)C1CCN(Cc2cccc3c2OCO3)CC1 [Example 28] | dose dependent decrease in HCV RNA levels | ++ (“++” corresponds to ≦60% viral titer at 5 μM) |
| O=C(Nc1cccc(-c2cccc(Cl)c2)c1)C1CCN(Cc2ccccn2)CC1 [Example 98] |  | + (“+” corresponds to ≦60% viral titer at 15 μM) |
| CCn1ncc(CN2CCC(C(=O)Nc3cccc(-c4cccc(F)c4)c3)CC2)c1C [Example 95] |  | ++ (“++” corresponds to ≦60% viral titer at 5 μM) |
| O=C(Nc1cccc(-c2ccco2)c1)C1CCN(C(=O)c2n[nH]c3c2CCC3)CC1 [Example 54] |  | − (“−” corresponds to >60% viral titer at 15 μM (highest concentration tested)) |
| O=C(Nc1cccc(-c2ccco2)c1)C1CCN(Cc2nc3ccc(F)cc3[nH]2)CC1 [Example 49] |  | − (“−” corresponds to >60% viral titer at 15 μM (highest concentration tested)) |
| O=C(Nc1cccc(-c2cscn2)c1)C1CCN(Cc2cccc(-c3ccco3)c2)CC1 [Example 35] |  | + (“+” corresponds to ≦60% viral titer at 15 μM) |
| COc1cccc(-c2ccccc2NC(=O)C2CCN(Cc3nc(C)c(C)nc3C)CC2)c1 [Example 87] |  | ++ (“++” corresponds to ≦60% viral titer at 5 μM) |
| Cc1nnc(-c2cccc(NC(=O)C3CCN(C(=O)c4ccco4)CC3)c2)s1 [Example 41] |  | + (“+” corresponds to ≦60% viral titer at 15 μM) |
| COc1cccc(-c2ccccc2NC(=O)C2CCN(Cc3cc(C)c(O)c(C)c3)CC2)c1 [Example 24] | dose dependent decrease in HCV RNA levels | +++ (“+++” corresponds to ≦30% viral titer at 5 μM) |
| COc1cc(CN2CCC(C(=O)Nc3ccc(Oc4ccccc4F)cc3)CC2)ccc1O [Example 85] |  | ++ (“++” corresponds to ≦60% viral titer at 5 μM) |
| O=C(Nc1cccc(-c2cccc(Cl)c2)c1)C1CCN(Cc2ccc(O)cc2)CC1 [Example 31] |  | + (“+” corresponds to ≦60% viral titer at 15 μM) |
| O=C(Nc1cccc(-c2cccc(F)c2)c1)C1CCN(Cc2ccc(O)cc2)CC1 [Example 26] |  | ++ (“++” corresponds to ≦60% viral titer at 5 μM) |
| COc1cccc(-c2ccccc2NC(=O)C2CCN(Cc3cc(C)ccc3C)CC2)c1 [Example 88] |  | + (“+” corresponds to ≦60% viral titer at 15 μM) |
| COc1ccc(/C=C/CN2CCC(C(=O)Nc3cccc(-c4ccco4)c3)CC2)cc1 [Example 55] |  | − (“−” corresponds to >60% viral titer at 15 μM (highest concentration tested)) |
| O=C(Nc1ccc(-c2nc3ccccc3[nH]2)cc1)C1CCN(Cc2cc3ccccc3[nH]2)CC1 [Example 47] |  | − (“−” corresponds to >60% viral titer at 15 μM (highest concentration tested)) |
| CCn1cc(CN2CCC(C(=O)Nc3ccc(Oc4ccccc4F)cc3)CC2)cn1 [Example 97] |  | ++ (“++” corresponds to ≦60% viral titer at 5 μM) |
| O=C(Nc1cccc(-c2ccn[nH]2)c1)C1CCN(Cc2cccc3ccccc23)CC1 [Example 43] |  | − (“−” corresponds to >60% viral titer at 15 μM (highest concentration tested)) |
| COc1cc(CN2CCC(C(=O)Nc3cccc(-c4cccc(Cl)c4)c3)CC2)ccc1O [Example 42] |  | + (“+” corresponds to ≦60% viral titer at 15 μM) |
| COc1cccc(CN2CCC(C(=O)Nc3ccc(Oc4ccccc4F)cc3)CC2)c1 [Example 70] |  | + (“+” corresponds to ≦60% viral titer at 15 μM) |
| O=C(Nc1ccc(Oc2ccccc2)nc1)C1CCN(Cc2ccccc2)CC1 [Example 77] |  | ++ (“++” corresponds to ≦60% viral titer at 5 μM) |
| O=C(Nc1cccc(-c2cccc(F)c2)c1)C1CCN(Cc2ccc3nsnc3c2)CC1 [Example 90] |  | + (“+” corresponds to ≦60% viral titer at 15 μM) |
| COc1ccccc1/C=C/CN1CCC(C(=O)Nc2ccc(-n3nc(C)cc3C)cc2)CC1 [Example 66] |  | + (“+” corresponds to ≦60% viral titer at 15 μM) |
| O=C(Nc1cccc(-c2cccc(Cl)c2)c1)C1CCN(Cc2cccc(O)c2)CC1 [Example 50] |  | − (“−” corresponds to >60% viral titer at 15 μM (highest concentration tested)) |

| SMILES | intracellular HCV RNA levels (FIGS. 1A, 1B, 1C) | HCV Antiviral Activity |
| --- | --- | --- |
| CCCn1ncc(CN2CCC(C(=O)Nc3ccc(Oc4ccccc4F)cc3)CC2)c1C [Example 73] |  | + (“+” corresponds to ≦60% viral titer at 15 μM) |
| CC(C)Cc1cc(CN2CCC(C(=O)Nc3ccc(Oc4ccccc4F)cc3)CC2)n[nH]1 [Example 86] |  | + (“+” corresponds to ≦60% viral titer at 15 μM) |
| COc1cccc(-c2cccc(NC(=O)C3CCN(CC=C(C)C)CC3)c2)c1 [Example 69] |  | ++ (“++” corresponds to ≦60% viral titer at 5 μM) |
| C=CCn1cc(CN2CCC(C(=O)Nc3cccc(-c4cccc(Cl)c4)c3)CC2)c(C)n1 [Example 72] |  | + (“+” corresponds to ≦60% viral titer at 15 μM) |
| CSCCCN1CCC(C(=O)Nc2cccc(-c3cc4ccccc4[nH]3)c2)CC1 [Example 46] |  | − (“−” corresponds to >60% viral titer at 15 μM (highest concentration tested)) |
| COc1cccc(-c2ccccc2NC(=O)C2CCN(Cc3cccc(OC)c3O)CC2)c1 [Example 62] |  | ++ (“++” corresponds to ≦60% viral titer at 5 μM) |
| CCCn1ncc(CN2CCC(C(=O)Nc3ccccc3-c3cccc(OC)c3)CC2)c1C [Example 80] |  | + (“+” corresponds to ≦60% viral titer at 15 μM) |
| COc1cccc(-c2ccccc2NC(=O)C2CCN(CCC(C)c3ccccc3)CC2)c1 (stereo not shown) [Example 36] |  | + (“+” corresponds to ≦60% viral titer at 15 μM) |
| Cc1nc(C)c(CN2CCC(C(=O)Nc3cccc(-c4cccc(F)c4)c3)CC2)nc1C [Example 79] |  | ++ (“++” corresponds to ≦60% viral titer at 5 μM) |
| Cc1ccc(CN2CCC(C(=O)Nc3cccc(-c4cc5ccccc5[nH]4)c3)CC2)o1 [Example 45] |  | − (“−” corresponds to >60% viral titer at 15 μM (highest concentration tested)) |
| COc1cccc(-c2ccccc2NC(=O)C2CCN(Cc3cccc4cccnc34)CC2)c1 [Example 22] | dose dependent decrease in HCV RNA levels | +++ (“+++” corresponds to ≦30% viral titer at 5 μM) |
| COc1cc(CN2CCC(C(=O)Nc3ccc(-c4cccc(C)c4)cc3)CC2)ccc1O [Example 17] |  | + (“+” corresponds to ≦60% viral titer at 15 μM) |
| COc1cccc(CN2CCC(C(=O)Nc3cccc(-c4cccc(F)c4)c3)CC2)c1O [Example 91] |  | ++ (“++” corresponds to ≦60% viral titer at 5 μM) |
| O=C(Nc1cccc(-c2ccco2)c1)C1CCN(Cc2cccc3cccnc23)CC1 [Example 40] |  | + (“+” corresponds to ≦60% viral titer at 15 μM) |
| COc1ccc(O)c(CN2CCC(C(=O)Nc3ccc(Oc4ccccc4F)cc3)CC2)c1 [Example 81] |  | ++ (“++” corresponds to ≦60% viral titer at 5 μM) |
| O=C(Nc1ccc(-c2nc3ccccc3[nH]2)cc1)C1CCN(CC2CC=CCC2)CC1 (stereo not shown) [Example 92] |  | + (“+” corresponds to ≦60% viral titer at 15 μM) |
| C=CCn1cc(CN2CCC(C(=O)Nc3cccc(-c4cccc(F)c4)c3)CC2)c(C)n1 [Example 93] |  | ++ (“++” corresponds to ≦60% viral titer at 5 μM) |
| COc1cccc(CN2CCC(C(=O)Nc3ccc(Oc4ccccc4F)cc3)CC2)c1O [Example 61] |  | ++ (“++” corresponds to ≦60% viral titer at 5 μM) |
| COc1cccc(-c2ccccc2NC(=O)C2CCN(Cc3ccc(F)cc3OC)CC2)c1 [Example 34] |  | + (“+” corresponds to ≦60% viral titer at 15 μM) |
| COc1cccc(-c2ccccc2NC(=O)C2CCN(Cc3ccc(OC)c(C)c3)CC2)c1 [Example 32] |  | + (“+” corresponds to ≦60% viral titer at 15 μM) |
| Cc1nn(C(C)C)c(C)c1CN1CCC(C(=O)Nc2cccc(-c3cccc(F)c3)c2)CC1 [Example 76] |  | ++ (“++” corresponds to ≦60% viral titer at 5 μM) |
| COc1cccc(O)c1CN1CCC(C(=O)Nc2cccc(-c3cccc(F)c3)c2)CC1 [Example 30] |  | + (“+” corresponds to ≦60% viral titer at 15 μM) |
| COc1ccccc1CN1CCC(C(=O)Nc2ccc(-c3nc4ccccc4[nH]3)cc2)CC1 [Example 23] |  | +++ (“+++” corresponds to ≦30% viral titer at 5 μM) |
